From ChEMBL document CHEMBL5137007, “Hamuramicin C, a Cytotoxic Bicyclic Macrolide Isolated from a Wasp Gut Bacterium” (J Nat Prod, 2022)

Columns and labels:
MDA-MB-231 = assay: Antiproliferative activity against human MDA-MB-231 cells measured after 72 hrs by SRB assay; format: functional, cell-based; conditions: MDA-MB-231, 72 h
HCT-116 = assay: Antiproliferative activity against human HCT-116 cells measured after 72 hrs by SRB assay; format: functional, cell-based; conditions: HCT-116, 72 h
A549 = assay: Antiproliferative activity against human A549 cells measured after 72 hrs by SRB assay; format: functional, cell-based; conditions: A549, 72 h
[1] = Antiproliferative activity against human MRC5 cells measured after 72 hrs by SRB assay; format: toxicity, cell-based
SK-HEP1 = assay: Antiproliferative activity against human SK-HEP1 cells measured after 72 hrs by SRB assay; format: functional, cell-based; conditions: SK-HEP1, 72 h
SNU-638 = assay: Antiproliferative activity against human SNU-638 cells measured after 72 hrs by SRB assay; format: functional, cell-based; conditions: SNU-638, 72 h
[2] = Selectivity index, ratio of IC50 for human MRC5 cells to IC50 for human SNU-638 cells; format: toxicity; conditions: MRC5 cells versus SNU-638 cells, read-out: Selectivity Index
[3] = Selectivity index, ratio of IC50 for human MRC5 cells to IC50 for human MDA-MB-231 cells; format: toxicity; conditions: MRC5 cells versus MDA-MB-231 cells, read-out: Selectivity Index
[4] = Selectivity index, ratio of IC50 for human MRC5 cells to IC50 for human SK-HEP1 cells; format: toxicity; conditions: MRC5 cells versus SK-HEP1 cells, read-out: Selectivity Index
[5] = Selectivity index, ratio of IC50 for human MRC5 cells to IC50 for human A549 cells; format: toxicity; conditions: MRC5 cells versus A549 cells, read-out: Selectivity Index
[6] = Selectivity index, ratio of IC50 for human MRC5 cells to IC50 for human HCT-116 cells; format: toxicity; conditions: MRC5 cells versus HCT-116 cells, read-out: Selectivity Index

IC50 (MDA-MB-231) [nM] | IC50 (HCT-116) [nM] | IC50 (A549) [nM] | IC50 (SK-HEP1) [nM] | IC50 (SNU-638) [nM] | SMILES | IC50 at 72 h [1] [nM] | selectivity ratio [2] | selectivity ratio [3] | selectivity ratio [4] | selectivity ratio [5] | selectivity ratio [6]
9700 | 1400 | 800 | 700 | – | COc1cc([C@@H]2c3cc4c(cc3[C@@H](O[C@@H]3O[C@@H]5CO[C@@H](C)O[C@H]5[C@H](O)[C@H]3O)[C@H]3COC(=O)[C@H]23)OCO4)cc(OC)c1O [ETOPOSIDE] | > 20000 | – | – | – | – | –
3400 | 1300 | 7300 | 2600 | 2400 | CCC[C@]1(O)C[C@H](O)[C@@H](C)[C@H]([C@H](C)[C@@H]2C/C=C/C=C/C=C/[C@H](O)C(=O)/C(C)=C/C(C)=C/[C@@H](O)/C(C)=C/CC(=O)O2)O1 | 18700 | 7.9 | 5.5 | 7.2 | 2.6 | 14.2
